Reference: patent USH2260H1, “Stents combined with paclitaxel derivatives” (Angiotech International AG, priority 2005, dated 2011)
pIC50: −log10 of the molar value. Entries after “also recorded” stand apart in the source; their conditions may differ.

What was measured:
[1] = test system: collagenase expression; assay: Effect of other anti-microtubules on IL-1 induced collagenase expression in primary chondrocytes; assay type: cell-based, calf; settings: pre-incubation 6 hours, IL-1 20 ng/ml 18 hours; FIGS. 5A-H
Method: Primary chondrocyte cultures were freshly isolated from calf cartilage. The cells were plated at 2.5×10^6 per ml in 100×20 mm culture dishes and incubated in Ham's F12 medium containing 5% FBS overnight at 37° C. The cells were starved in serum-free medium overnight and then treated with anti-microtubule agents at various concentrations for 6 hours. IL-1 (20 ng/ml) was then added to each plate and the plates incubated for an additional 18 hours. Total RNA was isolated by the acidified guanidine isothiocyanate method and subjected to electrophoresis on a denatured gel. Denatured RNA samples (15 μg) were analyzed by gel electrophoresis in a 1% denatured gel, transferred to a nylon membrane and hybridized with the ^32P-labeled collagenase cDNA probe. ^32P-labeled glyceraldehyde phosphate […] (GAPDH) cDNA as an internal standard to ensure roughly equal loading. The exposed films were scanned and quantitatively analyzed with IMAGEQUANT.

[2] = test system: human fibroblasts; assay: Screening assay, cell proliferation of fibroblasts (CYQUANT); assay type: cell-based; settings: Fibroblast, 72 hours, average of n=4 experiments, FIG. 8
Method: Fibroblasts at 70-90% confluency were trypsinized, replated at 600 cells/well in media in 96-well plates and allowed to attach overnight. Paclitaxel was prepared in DMSO at a concentration of 10^−2 M and diluted 10-fold to give a range of stock concentrations (10^−8 M to 10^−2 M). […] Each drug concentration was tested in triplicate wells.
To terminate the assay, the media was removed by gentle aspiration. A 1/400 dilution of CYQUANT 400X GR dye indicator (Molecular Probes; Eugene, Oreg.) was added to 1X Cell Lysis buffer, and 200 μL of the mixture was added to the wells of the plate. Plates were incubated at room temperature, protected from light for 3-5 minutes.

[3] = test system: AP-1 DNA binding activity; assay: IL-1 induced AP-1 DNA binding activity, gel mobility shift with chondrocyte extracts; assay type: cell-based; settings: chondrocytes pretreated with 10^−7 to 10^−5 M for 24 hours, IL-1β 20 ng/ml; FIG. 4C
Method: Binding activity was assayed with a radiolabeled human AP-1 sequence probe and gel mobility shift assay. Extracts from chondrocytes untreated or treated with various amounts of paclitaxel (10^−7 to 10^−5 M) followed by IL-1β (20 ng/ml) were incubated with excess probe on ice for 30 minutes, followed by non-denaturing gel electrophoresis. The “com” lane contains excess unlabeled AP-1 oligonucleotide. The results shown are representative of three independent experiments.

[4] = test system: Chick Chorioallantoic Membrane (CAM); assay: Chick chorioallantoic membrane (CAM) angiogenesis assay
[5] = test system: MMP-1 mRNA (collagenase); assay: IL-1 induced MMP-1 (collagenase) mRNA expression in chondrocytes, Northern blot; settings: pretreatment 24 hours
[6] = test system: MMP-3 mRNA (stromelysin); assay: IL-1 induced MMP-3 (stromelysin) mRNA expression in chondrocytes, Northern blot; settings: pretreatment 24 hours

In the case of `CC(O)CC(C)(C)O` (centres unmarked) [hexylene glycol], the “concentration (as low as) preventing IL-1-induced collagenase expression” value (“concentration” for short) [1] was 100 nM.
For `O=C(CCC(=O)ON1C(=O)CCC1=O)OCCOC(=O)CCC(=O)ON1C(=O)CCC1=O` [ethylene glycol bis-(succinimidylsuccinate)], the “concentration” value [1] was 100 nM.
With `CC(=O)O[C@H]1C(=O)[C@@]2(C)[C@H]([C@H](OC(=O)c3ccccc3)[C@]3(O)C[C@H](OC(=O)[C@H](O)[C@@H](NC(=O)c4ccccc4)c4ccccc4)C(C)=C1C3(C)C)[C@]1(OC(C)=O)CO[C@@H]1C[C@@H]2O` [paclitaxel] the pIC50 [2] was 7.64, the “IL-1 induced AP-1 binding activity” value [3] was “IL-1 induced binding activity decreased” and the “angiogenesis in the CAM” value ([4]; 48 hours after application) was “angiogenesis was inhibited”. The “maximal avascular zone, avascular gradient scale” value ([4]; within 48 hours, depending on concentration) was 3, the “collagenase mRNA inhibition at 10^−5 M” value ([5]; 10^−5 M paclitaxel) was “complete inhibition” and the “collagenase mRNA levels” value ([5]; then IL-1β, FIG. 4D) was “inhibited by pretreatment with paclitaxel; also recorded: significantly reduced”. For the same molecule, the “stromelysin mRNA inhibition at 10^−5 M” value ([6]; 10^−5 M paclitaxel) was “complete inhibition” and the “stromelysin mRNA levels” value ([6]; then IL-1β, FIG. 4D) was “inhibited by pretreatment with paclitaxel; also recorded: significantly reduced”.
With `Nc1ncnc2c1ccn2[C@@H]1O[C@H](CO)[C@@H](O)[C@H]1O` [tubercidin] the “concentration” value [1] was 100 nM.
